Measurements taken from ChEMBL document CHEMBL4610120, “New Broad-Spectrum Antibiotics Containing a Pyrrolobenzodiazepine Ring with Activity against Multidrug-Resistant Gram-Negative Bacteria” (J Med Chem, 2020).
≈ marks a conversion by molar mass, not a printed value. Calls of active or inactive are those of the source. The rule behind the calls is not given here.

How the values were obtained:
[1] = Selectivity ratio of cytotoxicity against human WI38 cells to MIC for methicillin resistant Staphylococcus aureus NCTC 13616; format: toxicity, cell-based
[2] = tested on: Acinetobacter baumannii; assay: Antimicrobial activity against multidrug-resistant Acinetobacter baumannii AYE by microdilution broth method; format: functional
[3] = tested on: Klebsiella pneumoniae; assay: Antimicrobial activity against Klebsiella pneumoniae M6 by microdilution broth method; format: functional
[4] = tested on: Klebsiella pneumoniae; assay: Antimicrobial activity against multidrug-resistant Klebsiella pneumoniae NCTC 13368 by microdilution broth method; format: functional
[5] = Selectivity ratio of cytotoxicity against human WI38 cells to MIC for vancomycin sensitive Enterococcus faecalis NCTC 775; format: toxicity, cell-based
[6] = Cytotoxicity against human WI38 cells assessed as cell viability at 20 uM measured after 24 hrs by MTT assay relative to control; format: cell-based, WI-38; settings: read-out: Activity
[7] = Selectivity ratio of cytotoxicity against human WI38 cells to MIC for methicillin sensitive Staphylococcus aureus NCTC 6571; format: toxicity, cell-based
[8] = tested on: DNA; assay: Stabilization of 5'-FAM-TAT-AGA-TAT-AGA-TAT-TTT-ATA-TCT-ATA-TCT-ATA-3'-TAMRA DNA (unknown origin) assessed as reduction in change in melting temperature at 1:1 to 5:1 ligand to DNA ratio measured after 3 hrs by FRET-based assay relative to control; format: ADME, nucleic-acid assay
[9] = Selectivity ratio of cytotoxicity against human WI38 cells to MIC for vancomycin resistant Enterococcus faecium NCTC 12204; format: toxicity, cell-based
[10] = Selectivity ratio of cytotoxicity against human WI38 cells to MIC for vancomycin resistant Enterococcus faecalis NCTC 12201; format: toxicity, cell-based
[11] = Selectivity ratio of cytotoxicity against human WI38 cells to MIC for methicillin resistant Staphylococcus aureus NCTC 13277; format: toxicity, cell-based
[12] = tested on: Enterococcus faecalis; assay: Antibacterial activity against vancomycin resistant Enterococcus faecalis NCTC 12201 by microdilution broth method; format: functional
[13] = tested on: Enterococcus faecalis; assay: Antibacterial activity against vancomycin sensitive Enterococcus faecalis NCTC 775 by microdilution broth method; format: functional
[14] = Selectivity ratio of cytotoxicity against human WI38 cells to MIC for Klebsiella pneumoniae M6; format: toxicity, cell-based
[15] = tested on: Staphylococcus aureus; assay: Antibacterial activity against methicillin resistant Staphylococcus aureus NCTC 13277 by microdilution broth method; format: functional
[16] = Selectivity ratio of cytotoxicity against human WI38 cells to MIC for multidrug-resistant Klebsiella pneumoniae NCTC 13368; format: toxicity, cell-based
[17] = tested on: Staphylococcus aureus; assay: Antibacterial activity against methicillin sensitive Staphylococcus aureus NCTC 6571 by microdilution broth method; format: functional
[18] = Selectivity ratio of cytotoxicity against human WI38 cells to MIC for multidrug-resistant Pseudomonas aeruginosa NCTC 13437; format: toxicity, cell-based
[19] = tested on: Pseudomonas aeruginosa; assay: Antimicrobial activity against Pseudomonas aeruginosa PAO1 by microdilution broth method; format: functional
[20] = tested on: Staphylococcus aureus; assay: Antibacterial activity against methicillin resistant Staphylococcus aureus NCTC 13616 by microdilution broth method; format: functional
[21] = Selectivity ratio of cytotoxicity against human WI38 cells to MIC for multidrug-resistant Acinetobacter baumannii AYE; format: toxicity, cell-based
[22] = tested on: DNA; assay: Stabilization of 5'-FAM-TAT-ATA-TAG-ATA-TTT-TTT-TAT-CTA-TAT-ATA-3'-TAMRA DNA (unknown origin) assessed as reduction in change in melting temperature at 1:1 to 5:1 ligand to DNA ratio measured after 3 hrs by FRET-based assay relative to control; format: ADME, nucleic-acid assay
[23] = Selectivity ratio of cytotoxicity against human WI38 cells to MIC for Acinetobacter baumannii ATCC 17978; format: toxicity, cell-based
[24] = tested on: Pseudomonas aeruginosa; assay: Antimicrobial activity against multidrug-resistant Pseudomonas aeruginosa NCTC 13437 by microdilution broth method; format: functional
[25] = Selectivity ratio of cytotoxicity against human WI38 cells to MIC for Pseudomonas aeruginosa PAO1; format: toxicity, cell-based
[26] = tested on: Enterococcus faecium; assay: Antibacterial activity against vancomycin resistant Enterococcus faecium NCTC 12204 by microdilution broth method; format: functional
[27] = tested on: Acinetobacter baumannii; assay: Antimicrobial activity against Acinetobacter baumannii ATCC 17978 by microdilution broth method; format: functional
[28] = target: T1, DNA repair protein RecN (Escherichia coli) (UniProt P05824); assay: Induction of Escherichia coli K12 MG1655 recN promotor measured at 30 mins interval for 20 hrs by fluorescence assay relative to control; settings: Escherichia coli str. K-12 substr. MG1655
T1 sequence (whole entry): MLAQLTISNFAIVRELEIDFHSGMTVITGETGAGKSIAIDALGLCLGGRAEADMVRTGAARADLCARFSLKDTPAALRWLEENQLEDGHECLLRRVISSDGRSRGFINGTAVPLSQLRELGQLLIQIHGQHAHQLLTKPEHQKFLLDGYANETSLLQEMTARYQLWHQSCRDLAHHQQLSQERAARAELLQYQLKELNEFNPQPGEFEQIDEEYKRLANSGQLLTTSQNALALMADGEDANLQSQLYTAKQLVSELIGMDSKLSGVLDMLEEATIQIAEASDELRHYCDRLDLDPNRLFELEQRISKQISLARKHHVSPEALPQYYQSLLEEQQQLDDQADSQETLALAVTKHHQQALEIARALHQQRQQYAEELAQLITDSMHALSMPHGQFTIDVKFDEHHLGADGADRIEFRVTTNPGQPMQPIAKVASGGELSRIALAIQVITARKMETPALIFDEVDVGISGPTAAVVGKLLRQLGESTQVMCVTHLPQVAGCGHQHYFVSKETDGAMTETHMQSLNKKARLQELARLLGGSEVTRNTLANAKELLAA

[29] = target: T2, Cell division inhibitor SulA (Escherichia coli K-12) (UniProt P0AFZ5); assay: Induction of Escherichia coli K12 MG1655 sulA promotor measured at 30 mins interval for 20 hrs by fluorescence assay relative to control; settings: Escherichia coli str. K-12 substr. MG1655
T2 sequence (whole entry): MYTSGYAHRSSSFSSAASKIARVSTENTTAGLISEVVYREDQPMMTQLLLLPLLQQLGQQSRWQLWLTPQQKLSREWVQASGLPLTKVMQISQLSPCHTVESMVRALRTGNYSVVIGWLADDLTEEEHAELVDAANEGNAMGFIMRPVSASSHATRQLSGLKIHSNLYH

[30] = target: T3, LexA repressor (Escherichia coli) (UniProt P0A7C2); assay: Induction of Escherichia coli K12 MG1655 lexA promotor measured at 30 mins interval for 20 hrs by fluorescence assay relative to control; settings: Escherichia coli str. K-12 substr. MG1655
T3 sequence (whole entry): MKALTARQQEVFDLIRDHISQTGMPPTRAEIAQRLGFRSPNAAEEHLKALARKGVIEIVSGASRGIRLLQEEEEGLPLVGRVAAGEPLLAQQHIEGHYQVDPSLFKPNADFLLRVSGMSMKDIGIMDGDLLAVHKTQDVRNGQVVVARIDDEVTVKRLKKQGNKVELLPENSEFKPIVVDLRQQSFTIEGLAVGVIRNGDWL

[31] = target: T4, Protein RecA (Escherichia coli K-12) (UniProt P0A7G6); assay: Induction of Escherichia coli K12 MG1655 recA promotor measured at 30 mins interval for 20 hrs by fluorescence assay relative to control; settings: Escherichia coli str. K-12 substr. MG1655
T4 sequence (whole entry): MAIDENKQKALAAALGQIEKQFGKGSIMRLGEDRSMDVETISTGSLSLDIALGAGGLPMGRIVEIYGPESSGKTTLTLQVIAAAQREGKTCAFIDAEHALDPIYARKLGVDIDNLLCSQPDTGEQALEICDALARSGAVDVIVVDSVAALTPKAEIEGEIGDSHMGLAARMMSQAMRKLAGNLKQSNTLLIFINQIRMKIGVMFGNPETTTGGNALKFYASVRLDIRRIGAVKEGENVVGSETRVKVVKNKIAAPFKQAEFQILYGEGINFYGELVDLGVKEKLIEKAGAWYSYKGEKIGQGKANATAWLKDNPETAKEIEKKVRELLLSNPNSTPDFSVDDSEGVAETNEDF

Row | Structure (SMILES) | selectivity ratio [1] | MIC [2] [µg/mL] | MIC [3] [µg/mL] | MIC [4] [µg/mL] | selectivity ratio [5] | viability at 24 h, 20 µM [6] [%] | selectivity ratio [7] | fold change (FC) [8] | selectivity ratio [9] | selectivity ratio [10] | MIC [12] [µg/mL] | MIC [13] [µg/mL] | MIC [15] [µg/mL] | MIC [17] [µg/mL] | MIC [19] [µg/mL] | MIC [20] [µg/mL] | fold change (FC) [22] | MIC [24] [µg/mL] | MIC [26] [µg/mL] | MIC [27] [µg/mL] | other results
1 | COc1cc2c(cc1OCCCC(=O)Nc1cc(C(=O)Nc3ccc(-c4cc(C(=O)N5CCOCC5)n(C)c4)cc3)n(C)c1)N=C[C@@H]1CCCN1C2=O | 100 | 2 (≈ 2.77 µM) | 2 (≈ 2.77 µM) | 32 (≈ 44.3 µM) | 100 | > 85 | 100 | 3 to 4 | 100 | 100 | ≤ 0.125 | ≤ 0.125 | ≤ 0.125 | ≤ 0.125 | > 128 | ≤ 0.125 | 3 to 4 | > 128 | ≤ 0.125 | 4 (≈ 5.54 µM) | selectivity ratio [11]: 100; selectivity ratio [14]: 10; selectivity ratio [16]: 10; selectivity ratio [18]: 10; selectivity ratio [21]: 10; selectivity ratio [23]: 10; selectivity ratio [25]: 10
2 | COc1cc2c(cc1OCCCC(=O)Nc1cc(C(=O)Nc3ccc(-c4cc(C(=O)N(C)C)n(C)c4)cc3)n(C)c1)N=C[C@@H]1CCCN1C2=O | 100 | 4 (≈ 5.88 µM) | 2 (≈ 2.94 µM) | 8 (≈ 11.8 µM) | 100 | > 85 | 100 | 3 to 4 | 100 | 100 | ≤ 0.125 | ≤ 0.125 | ≤ 0.125 | ≤ 0.125 | 128 (≈ 188 µM) | ≤ 0.125 | 3 to 4 | > 128 | ≤ 0.125 | 4 (≈ 5.88 µM) | selectivity ratio [11]: 100; selectivity ratio [14]: 10; selectivity ratio [16]: 10; selectivity ratio [18]: 10; selectivity ratio [21]: 10; selectivity ratio [23]: 10; selectivity ratio [25]: 10
3 | COC(=O)c1cc(NC(=O)c2cc(NC(=O)CCCOc3cc4c(cc3OC)C(=O)N3CCC[C@H]3C=N4)cn2C)cn1C |  | 128 (≈ 217 µM) | > 128 | > 128 |  | 35 |  | 3 to 4 |  |  | 0.5 (≈ 0.847 µM) | 1 (≈ 1.69 µM) | 2 (≈ 3.39 µM) | 0.5 (≈ 0.847 µM) | 128 (≈ 217 µM) | 1 (≈ 1.69 µM) | 3 to 4 | > 128 | 0.5 (≈ 0.847 µM) | 128 (≈ 217 µM) | 
4 | COc1cc2c(cc1OCCCC(=O)Nc1cc(C(=O)Nc3ccc(-c4cc(C(=O)N5CCSCC5)n(C)c4)cc3)n(C)c1)N=C[C@@H]1CCCN1C2=O | 100 | 2 (≈ 2.71 µM) | 4 (≈ 5.42 µM) | > 32 | 100 | > 85 | 100 | 3 to 4 | 100 | 100 | ≤ 0.03 | ≤ 0.03 | 0.06 (≈ 0.0813 µM) | ≤ 0.03 | > 32 | ≤ 0.03 | 3 to 4 | > 32 | ≤ 0.03 | 2 (≈ 2.71 µM) | selectivity ratio [11]: 100; selectivity ratio [14]: 10; selectivity ratio [16]: 10; selectivity ratio [18]: 10; selectivity ratio [21]: 10; selectivity ratio [23]: 10; selectivity ratio [25]: 10
5 | CCN(CC)C(=O)c1cc(-c2ccc(NC(=O)c3cc(NC(=O)CCCOc4cc5c(cc4OC)C(=O)N4CCC[C@H]4C=N5)cn3C)cc2)cn1C | 100 | 32 (≈ 45.2 µM) | > 128 | > 128 | 100 | > 85 | 100 | 3 to 4 | 100 | 100 | 0.25 to 0.5 (≈ 0.353 to 0.706 µM) | 0.5 (≈ 0.706 µM) | 1 (≈ 1.41 µM) | 0.25 to 0.5 (≈ 0.353 to 0.706 µM) | > 128 | 1 (≈ 1.41 µM) | 3 to 4 | > 128 | 0.25 (≈ 0.353 µM) | 64 (≈ 90.4 µM) | selectivity ratio [11]: 100; selectivity ratio [14]: 10; selectivity ratio [16]: 10; selectivity ratio [18]: 10; selectivity ratio [21]: 10; selectivity ratio [23]: 10; selectivity ratio [25]: 10
6 | CO[C@H]1/C=C/O[C@@]2(C)Oc3c(C)c(O)c4c(O)c(c(/C=N/N5CCN(C)CC5)c(O)c4c3C2=O)NC(=O)/C(C)=C\C=C\[C@H](C)[C@H](O)[C@@H](C)[C@@H](O)[C@@H](C)[C@H](OC(C)=O)[C@@H]1C |  |  |  |  |  |  |  |  |  |  |  |  |  |  |  |  |  |  |  |  | Activity [28]: inactive; Activity [29]: inactive; Activity [30]: inactive; Activity [31]: inactive
7 | C[C@H]1c2cccc(O)c2C(=O)C2=C(O)[C@]3(O)C(=O)C(C(N)=O)=C(O)[C@@H](N(C)C)[C@@H]3[C@@H](O)[C@@H]21 |  |  |  |  |  |  |  |  |  |  |  |  |  |  |  |  |  |  |  |  | Activity [28]: inactive; Activity [29]: inactive; Activity [30]: inactive; Activity [31]: inactive
8 | CO[C@@H]1[C@@H](OC(N)=O)[C@@H](O)[C@H](Oc2ccc3c(O)c(NC(=O)c4ccc(O)c(CC=C(C)C)c4)c(=O)oc3c2C)OC1(C)C |  |  |  |  |  |  |  |  |  |  |  |  |  |  |  |  |  |  |  |  | fold change (FC) [28]: 14 to 32; fold change (FC) [29]: 17 to 41; fold change (FC) [30]: 5 to 13; fold change (FC) [31]: 20 to 35
